Assay results as given in patent publication US20090062395A1, “RENIN INHIBITORS FOR THE TREATMENT OF HYPERTENSION” (priority 2006, published 2009).

Tests used:
patients [1] = experiment: Abrupt withdrawal of aliskiren after eight weeks of treatment, compared with placebo (FIG. 3); format: in vivo, human
Experimental: In another study, the potential for rebound hypertension following abrupt withdrawal of aliskiren treatment was evaluated in those patients who completed eight weeks of treatment compared to patients that were given a placebo only. The tested doses were 150, 300 and 600 mg of aliskiren.

patients [2] = experiment: Long-term study, placebo-controlled randomized withdrawal period from month 11 (visit 10); format: in vivo, human; conditions: for Mean change (SD) from Month 11 (Visit 10) in msDBP / Mean change (SD) from Month 11 (Visit 10) in msSBP: continued aliskiren monotherapy 150 or 300 mg
Experimental: Persistence of effect was examined after a long-term study in which patients were treated for approximately 1 year. Patients were randomly assigned to aliskiren at either 150 mg or 300 mg a day. Aliskiren was increased to 300 mg in those patients who had not responded to 150 mg. Starting at the end of treatment month 2 and 3, investigators adjusted individual therapy in order to achieve a goal BP of <140/90 mm Hg. Subsequent upward dose titration required that BP exceed 140/90 for two consecutive visits. No downward titration of aliskiren was permitted.
At month 11 (visit 10), patients who had been maintained on aliskiren monotherapy entered a placebo-controlled randomized withdrawal study to confirm continued efficacy. Eligible patients were stratified based on dose and randomized in a 1:1 ratio to either continue their current treatment of aliskiren monotherapy (aliskiren 150 mg or aliskiren 300 mg) or be switched to placebo in a double-blind fashion.
The potential for a rebound effect on BP with abrupt treatment withdrawal was evaluated.
Rebound was defined as a rise of >5 mm Hg for diastolic and >10 mm for systolic was used and the results are presented separately.

[3] = End point: Month 11 + 28 days or last visit carried forward
[4] = Visit 11, Month 11 + 7 Days, randomized withdrawal ITT population

With `COCCCOc1cc(C[C@@H](C[C@H](N)[C@@H](O)C[C@H](C(=O)NCC(C)(C)C(N)=O)C(C)C)C(C)C)ccc1OC` [aliskiren, 2(S),4(S),5(S),7(S)—N-(3-amino-2,2-dimethyl-3-oxopropyl)-2,7-di(1-methylethyl)-4-hydroxy-5-amino-8-[4-methoxy-3-(3-methoxy-propoxy)phenyl]-octanamide] the “Patients with msDBP and msSBP values remaining below baseline” value (patients [1]; 4 days and 2 weeks after drug withdrawal, aliskiren 150 mg, 300 mg and 600 mg groups versus placebo group) was “more patients in the aliskiren 150 mg, 300 mg, and 600 mg groups had msDBP and msSBP values that remained below baseline compared with the placebo group”, the “Persistence of the antihypertensive effect following withdrawal” value (patients [1]; after eight weeks of aliskiren 150, 300 or 600 mg, study period of two weeks) was “a good persistence of the antihypertensive effect” and the “Rebound hypertension following abrupt withdrawal” value (patients [1]; after eight weeks of aliskiren 150, 300 or 600 mg, two weeks after withdrawal) was “no signs of rebound hypertension”. The “BP after withdrawal of study drug versus placebo group” value (patients [1]; aliskiren 150, 300 and 600 mg for eight weeks, throughout the drug withdrawal period) was “values still remained lower than those in the placebo group”, the “Mean change (SD) from Month 11 (Visit 10) in msDBP” value (“Mean change (SD) … in msDBP” for short) (patients [2]; [3]) was 1.2 (6.9) mm Hg and the “Mean change (SD) from Month 11 (Visit 10) in msSBP” value (from here on “Mean change (SD) … in msSBP”) (patients [2]; [3]) was 1.7 (10.1) mm Hg. The “Mean change (SD) … in msDBP” value (patients [2]; [4]) was 0.3 (6.8) mm Hg, the “Mean change (SD) … in msSBP” value (patients [2]; [4]) was 1.3 (10.3) mm Hg and the “Mean change (SD) … in msDBP” value (patients [2]; Visit 12, Month 11 + 14 Days) was 0.3 (6.8) mm Hg. The “Mean change (SD) … in msSBP” value (patients [2]; Visit 12, Month 11 + 14 Days) was 0.3 (10.4) mm Hg, the “Mean change (SD) … in msDBP” value (patients [2]; Visit 13, Month 11 + 21 Days) was 0.4 (6.7) mm Hg and the “Mean change (SD) … in msSBP” value (patients [2]; Visit 13, Month 11 + 21 Days) was 0.5 (10.6) mm Hg. For the same molecule, the “Mean change (SD) … in msDBP” value (patients [2]; Visit 14, Month 11 + 28 Days) was 1.1 (6.8) mm Hg, the “Mean change (SD) … in msSBP” value (patients [2]; Visit 14, Month 11 + 28 Days) was 1.8 (10.1) mm Hg and the “Persistence of blood pressure lowering effect after withdrawal” value (patients [2]; patients switched to placebo at month 11 after aliskiren 150 or 300 mg monotherapy) was “a persistence of a blood pressure lowering effect was observed for several weeks after withdrawal”. The “Rebound effect on BP with abrupt treatment withdrawal” value (patients [2]; rebound defined as rise of >5 mm Hg diastolic and >10 mm systolic) was “no sign of rebound”.
